Each structure is given as a SMILES string.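 Method: 48-hour compound exposure of cells in 96-well plates, five concentrations, linear interpolation of endpoints. Definition used: TGI = concentration required for complete inhibition of growth.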

Consider nine molecules from PubChem BioAssay (NCI).

Among the test systems are A498 renal; CCRF-CEM leukemia; HCC-2998 colon; IGROV1 ovarian; LOX IMVI melanoma; M14 melanoma; MDA-MB-231 breast; RXF 393 renal; SF-268 CNS; SK-MEL-5 melanoma; SW-620 colon; UO-31 renal.
Assay in all cases: growth of human tumour cells (NCI), 48 h

For the molecule `C=C1C(=O)O[C@H]2C/C(C)=C/CC/C(C)=C/CC[C@@](C)(O)[C@@H](I)C[C@@H]12`, the TGI in the test with A498 renal amounted to 32 µM; in the test with CCRF-CEM leukemia it was 5.4 µM; with HCC-2998 colon, 25.6 µM; in the test on IGROV1 ovarian, 10.2 µM; with LOX IMVI melanoma it was 3.31 µM; in the test on M14 melanoma, 24.8 µM. In addition, the TGI with MDA-MB-231 breast turned out to be 26.9 µM; in the test with RXF 393 renal, 13.2 µM; in the test with SF-268 CNS, 31.9 µM; in the test with SK-MEL-5 melanoma, 28.2 µM; in the test on SW-620 colon, 19.8 µM; in the test with UO-31 renal, 24.5 µM.
In the case of `OCC(Cn1cncn1)(c1ccc(F)cc1F)n1cncn1` (stereo not drawn), the TGI with A498 renal, with CCRF-CEM leukemia, in the test on HCC-2998 colon, with IGROV1 ovarian, in the test on LOX IMVI melanoma and in the test on M14 melanoma was > 100 µM each time. In addition, the TGI with MDA-MB-231 breast, in the test on RXF 393 renal, in the test on SF-268 CNS, in the test with SK-MEL-5 melanoma, in the test on SW-620 colon and in the test on UO-31 renal was > 100 µM throughout.
On to `C=CCN(c1cc(OCc2ccccc2)c(NC(C)=O)cc1[N+](=O)[O-])S(C)(=O)=O`, for which the TGI in the test on A498 renal was 41.6 µM; with CCRF-CEM leukemia, > 100 µM; with HCC-2998 colon it was > 100 µM; with IGROV1 ovarian, 45.4 µM; in the test with LOX IMVI melanoma it was > 100 µM; in the test on M14 melanoma it was > 100 µM. Further, the TGI with MDA-MB-231 breast was 29.5 µM; in the test with RXF 393 renal, 40.3 µM; in the test with SF-268 CNS it was 51.3 µM; in the test with SK-MEL-5 melanoma it was > 100 µM; in the test with SW-620 colon, > 100 µM; in the test with UO-31 renal, > 100 µM.
Take `O=C(OCCN1CCCCC1)C(c1ccccc1)C1(O)CCSCC1` (stereo not drawn): the TGI with A498 renal, in the test on CCRF-CEM leukemia, in the test on HCC-2998 colon, with IGROV1 ovarian, with LOX IMVI melanoma and in the test on M14 melanoma was > 100 µM each time. Further, the TGI with MDA-MB-231 breast, with RXF 393 renal, in the test on SF-268 CNS, with SK-MEL-5 melanoma, with SW-620 colon and with UO-31 renal was > 100 µM in each case.
With `COc1ccc2c(c1)nc1n2C(N)=Nc2ccccc2S1`, the TGI is > 88.4 µM with A498 renal; > 23.3 µM with CCRF-CEM leukemia; > 100 µM in the test with HCC-2998 colon; > 100 µM in the test on IGROV1 ovarian; > 72.8 µM with LOX IMVI melanoma; > 80.6 µM in the test with M14 melanoma. The TGI in the test on MDA-MB-231 breast is > 100 µM; in the test with RXF 393 renal, > 78.3 µM; with SF-268 CNS, > 100 µM; in the test with SK-MEL-5 melanoma, > 61.9 µM; in the test with SW-620 colon, > 100 µM; with UO-31 renal, > 100 µM.
Turning to `COC(=O)c1ccccc1C#CCCCOS(C)(=O)=O`, the TGI with A498 renal, with CCRF-CEM leukemia, in the test with HCC-2998 colon, with IGROV1 ovarian, with LOX IMVI melanoma and in the test on M14 melanoma was > 10 µM throughout. Further, the TGI in the test with MDA-MB-231 breast, in the test with RXF 393 renal, in the test with SF-268 CNS, in the test with SK-MEL-5 melanoma, in the test with SW-620 colon and in the test on UO-31 renal was > 10 µM each time.
As for `C=CC(C)(C)N[C@@H](C(=O)N1CCC[C@H]1c1nc(-c2nc(C(=O)OCC=C(C)C)c(C)o2)c(C)o1)C(C)C`, the TGI in the test on A498 renal was 39.4 µM; in the test with CCRF-CEM leukemia, 41.8 µM; in the test on HCC-2998 colon, 36 µM; in the test with IGROV1 ovarian, > 100 µM; in the test with LOX IMVI melanoma, > 100 µM; in the test on M14 melanoma, 83.4 µM. Besides, the TGI in the test with MDA-MB-231 breast worked out at 51.3 µM; with RXF 393 renal it was 91.8 µM; in the test with SF-268 CNS it was 46.9 µM; in the test with SK-MEL-5 melanoma, 52 µM; in the test with SW-620 colon, 53.8 µM; in the test with UO-31 renal it was 38.3 µM.
As for `O=C1CCC2(CC1CCSc1ccccc1)OCCO2` (stereo not drawn), the TGI in the test with A498 renal, in the test with CCRF-CEM leukemia, in the test with HCC-2998 colon, in the test on IGROV1 ovarian, in the test on LOX IMVI melanoma and with M14 melanoma was > 100 µM throughout. Besides, the TGI in the test on MDA-MB-231 breast, in the test on RXF 393 renal, in the test with SF-268 CNS, in the test with SK-MEL-5 melanoma, in the test with SW-620 colon and in the test on UO-31 renal was > 100 µM throughout.
`Cc1cn(CC2=NCCCN2)c(=O)[nH]c1=O`: the TGI in the test with A498 renal, with CCRF-CEM leukemia, in the test with HCC-2998 colon, in the test with IGROV1 ovarian, in the test with LOX IMVI melanoma and in the test on M14 melanoma was > 100 µM each time. Moreover, the TGI with MDA-MB-231 breast, in the test with RXF 393 renal, with SF-268 CNS, in the test on SK-MEL-5 melanoma, with SW-620 colon and with UO-31 renal was > 100 µM each time.
